Reference: ChEMBL document CHEMBL1138369, “Novel nucleotide triphosphates as potent P2Y2 agonists” (Bioorg Med Chem Lett, 2007)

Assays:
Format in all cases: functional
P2Y purinoceptor 2 = P2Y purinoceptor 2 (Homo sapiens, UniProt P41231); assay: Agonist activity at human P2Y2 receptor expressed in human 1321N1 by FLIPR assay
P2Y purinoceptor 4 = P2Y purinoceptor 4 (Homo sapiens, UniProt P51582); assay: Agonist activity at human cloned P2Y4 receptor expressed in human 1321N1 by FLIPR assay
P2Y purinoceptor 6 = P2Y purinoceptor 6 (Homo sapiens, UniProt Q15077); assay: Agonist activity at human cloned P2Y6 receptor expressed in human 1321N1 by FLIPR assay
P2Y purinoceptor 1 = P2Y purinoceptor 1 (Homo sapiens, UniProt P47900); assay: Agonist activity at human cloned P2Y1 receptor expressed in human 1321N1 by FLIPR assay
Sequence of P2Y purinoceptor 1 (P47900 whole entry): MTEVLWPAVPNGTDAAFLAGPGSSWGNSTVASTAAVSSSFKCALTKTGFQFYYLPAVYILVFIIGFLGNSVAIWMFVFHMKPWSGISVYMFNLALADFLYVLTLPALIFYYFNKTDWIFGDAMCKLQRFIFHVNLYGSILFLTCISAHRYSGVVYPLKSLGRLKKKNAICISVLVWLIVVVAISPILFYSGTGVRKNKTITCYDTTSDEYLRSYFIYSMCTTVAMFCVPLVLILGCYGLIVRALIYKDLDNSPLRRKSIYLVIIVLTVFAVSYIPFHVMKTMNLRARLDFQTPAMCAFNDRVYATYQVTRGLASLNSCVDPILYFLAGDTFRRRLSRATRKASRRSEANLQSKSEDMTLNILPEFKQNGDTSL

Sequence of P2Y purinoceptor 2 (P41231 whole entry): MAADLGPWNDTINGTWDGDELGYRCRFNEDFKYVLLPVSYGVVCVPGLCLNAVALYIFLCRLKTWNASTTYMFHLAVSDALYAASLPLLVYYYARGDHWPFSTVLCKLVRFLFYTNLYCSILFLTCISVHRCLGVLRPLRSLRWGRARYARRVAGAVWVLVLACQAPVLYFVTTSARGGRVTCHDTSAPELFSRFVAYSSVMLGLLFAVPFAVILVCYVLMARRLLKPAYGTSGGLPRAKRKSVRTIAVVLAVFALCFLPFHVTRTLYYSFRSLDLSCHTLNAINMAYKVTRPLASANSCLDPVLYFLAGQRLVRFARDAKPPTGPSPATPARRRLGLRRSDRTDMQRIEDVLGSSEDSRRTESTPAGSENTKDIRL
Sequence of P2Y purinoceptor 6 (Q15077 whole entry): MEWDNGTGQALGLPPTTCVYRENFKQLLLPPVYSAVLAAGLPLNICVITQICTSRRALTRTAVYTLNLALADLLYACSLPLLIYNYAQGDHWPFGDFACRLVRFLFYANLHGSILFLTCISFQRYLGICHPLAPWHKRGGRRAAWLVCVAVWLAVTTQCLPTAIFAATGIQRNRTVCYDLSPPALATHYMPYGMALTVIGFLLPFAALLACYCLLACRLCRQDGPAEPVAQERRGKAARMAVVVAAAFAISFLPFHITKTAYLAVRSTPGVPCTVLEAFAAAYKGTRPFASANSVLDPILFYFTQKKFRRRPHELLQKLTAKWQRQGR
Sequence of P2Y purinoceptor 4 (P51582 whole entry): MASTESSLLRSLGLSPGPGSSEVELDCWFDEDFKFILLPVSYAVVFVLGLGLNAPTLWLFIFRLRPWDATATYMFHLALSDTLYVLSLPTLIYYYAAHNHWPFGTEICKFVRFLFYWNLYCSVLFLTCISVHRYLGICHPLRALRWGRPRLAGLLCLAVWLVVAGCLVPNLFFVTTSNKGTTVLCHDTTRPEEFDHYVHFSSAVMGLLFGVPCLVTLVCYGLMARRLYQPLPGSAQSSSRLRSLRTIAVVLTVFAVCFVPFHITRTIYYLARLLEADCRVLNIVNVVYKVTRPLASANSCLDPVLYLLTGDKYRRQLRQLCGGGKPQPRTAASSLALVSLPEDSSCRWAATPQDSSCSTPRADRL

Structure (SMILES)	EC50 (P2Y purinoceptor 2)	EC50 (P2Y purinoceptor 4)	EC50 (P2Y purinoceptor 6)	EC50 (P2Y purinoceptor 1)
O=c1c2occc2ccn1[C@@H]1O[C@H](COP(=O)(O)OP(=O)(O)OP(=O)(O)O)[C@@H](O)[C@H]1O	221 nM			
O=c1c2c(ccn1[C@@H]1O[C@H](COP(=O)(O)OP(=O)(O)OP(=O)(O)O)[C@@H](O)[C@H]1O)CCCC2	55 nM			
O=c1c2cc(F)ccc2ccn1[C@@H]1O[C@H](COP(=O)(O)OP(=O)(O)OP(=O)(O)O)[C@@H](O)[C@H]1O	5 nM	3580 nM	> 20000 nM	> 20000 nM
Cc1cccc2ccn([C@@H]3O[C@H](COP(=O)(O)OP(=O)(O)OP(=O)(O)O)[C@@H](O)[C@H]3O)c(=O)c12	85 nM			
CS(=O)(=O)c1ccc2ccn([C@@H]3O[C@H](COP(=O)(O)OP(=O)(O)OP(=O)(O)O)[C@@H](O)[C@H]3O)c(=O)c2c1	650 nM			
N#Cc1ccc2ccn([C@@H]3O[C@H](COP(=O)(O)OP(=O)(O)OP(=O)(O)O)[C@@H](O)[C@H]3O)c(=O)c2c1	12 nM			
N#Cc1ccc2c(=O)n([C@@H]3O[C@H](COP(=O)(O)OP(=O)(O)OP(=O)(O)O)[C@@H](O)[C@H]3O)ccc2c1	88 nM			
O=c1c2cc(F)c(F)cc2ccn1[C@@H]1O[C@H](COP(=O)(O)OP(=O)(O)OP(=O)(O)O)[C@@H](O)[C@H]1O	16 nM	> 20000 nM	> 20000 nM	> 20000 nM
O=c1c2ccoc2ccn1[C@@H]1O[C@H](COP(=O)(O)OP(=O)(O)OP(=O)(O)O)[C@@H](O)[C@H]1O	68 nM			
O=c1ccn([C@@H]2O[C@H](COP(=O)(O)OP(=O)(O)OP(=O)(O)OP(=O)(O)OC[C@H]3O[C@@H](n4ccc(=O)[nH]c4=O)[C@H](O)[C@@H]3O)[C@@H](O)[C@H]2O)c(=O)[nH]1 [DIQUAFOSOL]				> 20000 nM
COc1cc2ccn([C@@H]3O[C@H](COP(=O)(O)OP(=O)(O)OP(=O)(O)O)[C@@H](O)[C@H]3O)c(=O)c2cc1F	6 nM			
O=c1c2ccc(F)cc2ccn1[C@@H]1O[C@H](COP(=O)(O)OP(=O)(O)OP(=O)(O)O)[C@@H](O)[C@H]1O	77 nM			
O=c1c2cc(Cl)ccc2ccn1[C@@H]1O[C@H](COP(=O)(O)OP(=O)(O)OP(=O)(O)O)[C@@H](O)[C@H]1O	10 nM	20000 nM	> 20000 nM	> 20000 nM
Cc1cccc2c(=O)n([C@@H]3O[C@H](COP(=O)(O)OP(=O)(O)OP(=O)(O)O)[C@@H](O)[C@H]3O)ccc12	557 nM			
O=c1c2ccccc2ccn1[C@@H]1O[C@H](COP(=O)(O)OP(=O)(O)OP(=O)(O)O)[C@@H](O)[C@H]1O	31 nM	7040 nM	> 20000 nM	> 20000 nM
O=c1c2ccc(Cl)cc2ccn1[C@@H]1O[C@H](COP(=O)(O)OP(=O)(O)OP(=O)(O)O)[C@@H](O)[C@H]1O	541 nM			
CN(C)c1cc2ccn([C@@H]3O[C@H](COP(=O)(O)OP(=O)(O)OP(=O)(O)O)[C@@H](O)[C@H]3O)c(=O)c2cc1F	4 nM			
CSc1ccc2ccn([C@@H]3O[C@H](COP(=O)(O)OP(=O)(O)OP(=O)(O)O)[C@@H](O)[C@H]3O)c(=O)c2c1	140 nM			
O=c1c2ccsc2ccn1[C@@H]1O[C@H](COP(=O)(O)OP(=O)(O)OP(=O)(O)O)[C@@H](O)[C@H]1O	30 nM			
O=c1c2cc(Cl)c(Cl)cc2ccn1[C@@H]1O[C@H](COP(=O)(O)OP(=O)(O)OP(=O)(O)O)[C@@H](O)[C@H]1O	13 nM			
O=c1ccn([C@@H]2O[C@H](COP(=O)(O)OP(=O)(O)OP(=O)(O)O)[C@@H](O)[C@H]2O)c(=O)[nH]1 [URIDINE TRIPHOSPHATE]	7 nM	39 nM	424 nM	> 2000 nM
O=c1c2cccnc2ccn1[C@@H]1O[C@H](COP(=O)(O)OP(=O)(O)OP(=O)(O)O)[C@@H](O)[C@H]1O	35 nM			
COc1ccc2ccn([C@@H]3O[C@H](COP(=O)(O)OP(=O)(O)OP(=O)(O)O)[C@@H](O)[C@H]3O)c(=O)c2c1	26 nM			
CSc1cc2ccn([C@@H]3O[C@H](COP(=O)(O)OP(=O)(O)OP(=O)(O)O)[C@@H](O)[C@H]3O)c(=O)c2cc1F	3 nM	> 20000 nM	> 20000 nM	> 20000 nM
Cc1cn([C@@H]2O[C@H](COP(=O)(O)OP(=O)(O)OP(=O)(O)O)[C@@H](O)[C@H]2O)c(=O)c2ccccc12	17500 nM			
Cc1ccc2c(=O)n([C@@H]3O[C@H](COP(=O)(O)OP(=O)(O)OP(=O)(O)O)[C@@H](O)[C@H]3O)ccc2c1	35 nM			
Cc1ccc2ccn([C@@H]3O[C@H](COP(=O)(O)OP(=O)(O)OP(=O)(O)O)[C@@H](O)[C@H]3O)c(=O)c2c1	148 nM			
